Assay results published in the supplement of paper PMC11451515.

Tested on: P12-Ichikawa
Experiment: cell viability relative to DMSO control; higher = less cytotoxic
Settings: 48 h
Method in brief: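 Viability is expressed as a percentage of DMSO wells within each plate, and cell-free wells serve as background. Seeding densities in the 1536-well plates (5 μl) were 500 cells/well for NOMO1 or SEM leukemia cells and 1000 cells/well for P12-Ichikawa. Each line was adapted for at least four passages in each medium. Library compounds in DMSO were pin-dosed at 47 μM to 0.79 nM (11 points, threefold), and CellTiter-Glo One luminescence was read after 48 h at 37°C.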

[1] = HPLM + 10% dialyzed FBS, 0.000781 µM
[2] = HPLM + 10% dialyzed FBS, 0.00234 µM
[3] = HPLM + 10% dialyzed FBS, 0.00702 µM
[4] = HPLM + 10% dialyzed FBS, 0.0211 µM
[5] = HPLM + 10% dialyzed FBS, 0.0632 µM
[6] = HPLM + 10% dialyzed FBS, 0.19 µM
[7] = HPLM + 10% dialyzed FBS, 0.569 µM
[8] = HPLM + 10% dialyzed FBS, 1.71 µM
[9] = HPLM + 10% dialyzed FBS, 5.12 µM
[10] = HPLM + 10% dialyzed FBS, 15.4 µM
[11] = HPLM + 10% dialyzed FBS, 46.1 µM
[12] = RPMI 5 mM glucose + 10% FBS, 0.000781 µM
[13] = RPMI 5 mM glucose + 10% FBS, 0.00234 µM
[14] = RPMI 5 mM glucose + 10% FBS, 0.00702 µM
[15] = RPMI 5 mM glucose + 10% FBS, 0.0211 µM
[16] = RPMI 5 mM glucose + 10% FBS, 0.0632 µM
[17] = RPMI 5 mM glucose + 10% FBS, 0.19 µM
[18] = RPMI 5 mM glucose + 10% FBS, 0.569 µM
[19] = RPMI 5 mM glucose + 10% FBS, 1.71 µM
[20] = RPMI 5 mM glucose + 10% FBS, 5.12 µM
[21] = RPMI 5 mM glucose + 10% FBS, 15.4 µM
[22] = RPMI 5 mM glucose + 10% FBS, 46.1 µM
[23] = RPMI 5 mM glucose + 10% dialyzed FBS, 0.000781 µM
[24] = RPMI 5 mM glucose + 10% dialyzed FBS, 0.00234 µM
[25] = RPMI 5 mM glucose + 10% dialyzed FBS, 0.00702 µM
[26] = RPMI 5 mM glucose + 10% dialyzed FBS, 0.0211 µM
[27] = RPMI 5 mM glucose + 10% dialyzed FBS, 0.0632 µM
[28] = RPMI 5 mM glucose + 10% dialyzed FBS, 0.19 µM
[29] = RPMI 5 mM glucose + 10% dialyzed FBS, 0.569 µM
[30] = RPMI 5 mM glucose + 10% dialyzed FBS, 1.71 µM
[31] = RPMI 5 mM glucose + 10% dialyzed FBS, 5.12 µM
[32] = RPMI 5 mM glucose + 10% dialyzed FBS, 15.4 µM
[33] = RPMI 5 mM glucose + 10% dialyzed FBS, 46.1 µM

SMILES	cell viability [1]	cell viability [2]	cell viability [3]	cell viability [4]	cell viability [5]	cell viability [6]	cell viability [7]	cell viability [8]	cell viability [9]	cell viability [10]	cell viability [11]	cell viability [12]	cell viability [13]	cell viability [14]	cell viability [15]	cell viability [16]	cell viability [17]	cell viability [18]	cell viability [19]	cell viability [20]	cell viability [21]	cell viability [22]	cell viability [23]	cell viability [24]	cell viability [25]	cell viability [26]	cell viability [27]	cell viability [28]	cell viability [29]	cell viability [30]	cell viability [31]	cell viability [32]	cell viability [33]
CN1\C=N/C2=CC=C(NC3=CC(=CC=C3C)NC(=O)C4=CC(=CC=C4)C(C)(C)C#N)C=C2C1=O	97.1%	96.9%	101%	97.8%	101%	94.6%	87%	87.4%	68.5%	69.3%	63.2%	90.4%	98.7%	99%	95%	96.7%	93%	83.6%	81.3%	59.6%	58.4%	44.4%	97.5%	104%	94%	102%	99.5%	98.7%	93.3%	84.8%	73.4%	64.1%	48.1%
Cc1ccnc2c1NC(=O)c1cccnc1N2C1CC1	97.4%	113%	112%	106%	112%	115%	115%	116%	105%	106%	109%	98.3%	109%	117%	108%	110%	116%	113%	115%	102%	95.2%	96.5%	93.5%	106%	99.9%	110%	108%	106%	104%	111%	97.1%	98.8%	96.8%
Oc1nc(-c2ccc(C(F)(F)F)cc2)nc2c1CSCC2	102%	109%	96.1%	102%	109%	108%	106%	98.1%	100%	91.5%	94%	101%	102%	100%	84.2%	107%	99.5%	108%	99%	87.7%	96.8%	85.4%	95.1%	90.9%	95.5%	86.3%	90.7%	94.7%	94.4%	99%	87.6%	87.8%	79.3%
CC(=O)Oc1ccccc1C(=O)Nc1ncc([N+](=O)[O-])s1	102%	103%	106%	107%	104%	104%	110%	109%	95.9%	97.3%	36.5%	92.8%	102%	95.5%	98.3%	96%	104%	98.5%	98.4%	79.9%	83.5%	75.6%	95.7%	97.5%	100%	95.6%	94.2%	95.4%	96.3%	93.5%	82%	85.2%	79.9%
CCOC(=O)\C1=C\[C@]2(CC)CCCN3CCC4=C([C@H]23)[N]1C5=C4C=CC=C5	98.7%	106%	107%	104%	111%	105%	110%	102%	115%	108%	101%	99.6%	118%	109%	110%	123%	111%	109%	116%	111%	114%	79.6%	89.5%	106%	109%	104%	107%	108%	113%	105%	105%	109%	65.7%
Nc1c2c(nc3ccccc13)CCCC2	119%	119%	112%	111%	118%	120%	107%	68.4%	109%	110%	99%	118%	124%	128%	117%	120%	115%	124%	64.9%	109%	113%	89.2%	106%	117%	119%	118%	86.6%	109%	117%	84.3%	102%	102%	79.1%
CC(C)c1cc(C(C)C)c(CC(=O)N[S+](=O)([O-])Oc2c(C(C)C)cccc2C(C)C)c(C(C)C)c1	103%	106%	103%	106%	103%	104%	104%	103%	101%	97%	89.7%	105%	102%	104%	96.8%	102%	96.9%	109%	96.8%	102%	97.6%	76.9%	99.5%	108%	105%	105%	110%	101%	98.3%	90.1%	99.1%	89.2%	87%
O=C(c1ccccc1)c1ccc2n1CCC2C(=O)O (stereo not given)	113%	111%	114%	111%	112%	106%	109%	91.7%	75.8%	64.6%	71.5%	127%	117%	124%	119%	120%	113%	117%	96.3%	84.5%	57.3%	62.8%	104%	108%	106%	107%	99.1%	108%	98.6%	93.6%	72.6%	52.8%	61.8%
COc1ccc(C(=O)CC2(O)C(=O)Nc3c(Cl)ccc(Cl)c32)cc1 (stereo not given)	102%	114%	114%	114%	117%	124%	120%	106%	55%	19.6%	14.5%	107%	104%	117%	109%	116%	125%	118%	106%	55.8%	14.1%	12.9%	98.9%	116%	126%	115%	120%	128%	122%	105%	81.9%	25.4%	27.5%
N[C@@H]1CONC1=O	97.7%	108%	101%	105%	109%	106%	109%	112%	114%	100%	110%	95.6%	95.6%	106%	102%	111%	102%	104%	95.5%	102%	97.2%	103%	92.6%	95.9%	101%	101%	105%	106%	98.7%	102%	96.5%	101%	103%
COc1cc(C(=O)N2CC[C@@H](O)[C@@H](N)C2)cc2nc(-c3cc4ccccc4n3CC3CC3)n(C)c12	117%	116%	123%	121%	121%	44.3%	31%	27.5%	29%	23.8%	18.6%	119%	127%	123%	122%	137%	117%	111%	33.4%	25.9%	21.5%	11.2%	–	–	–	–	–	–	–	–	–	–	–
C[C@@H]1CCO[C@H]2CN\3/C=C(/C(=O)NCC4=C(F)C=C(F)C=C4)C(=O)\C(=C3C(=O)N12)O	108%	109%	103%	109%	106%	105%	103%	96.5%	103%	104%	93.5%	99.3%	99.5%	106%	105%	101%	104%	111%	96.3%	93.9%	91.9%	74%	105%	97.1%	103%	97.9%	101%	95.6%	98.7%	93.6%	97.7%	86.5%	82.1%
CC(N[C@H]1CCCC[C@@H]1NC(=O)c1ccc(Cl)cc1)c1cccc2ccccc12 (stereo not given in full)	107%	109%	114%	110%	113%	115%	111%	116%	114%	39.7%	28.1%	117%	119%	113%	118%	117%	115%	119%	111%	102%	30.9%	35.2%	105%	105%	109%	104%	102%	113%	108%	110%	106%	30.6%	28.7%
OCC(O)C(O)C(O)CO (stereo not given)	95.6%	102%	97.8%	99.8%	98.4%	94.3%	103%	92.3%	88.1%	88.7%	87.7%	83.8%	96%	95.3%	95.4%	91.1%	92.3%	99%	87.1%	86.3%	77.8%	89.1%	87.2%	89.9%	95.3%	89.8%	97.2%	89.9%	93.7%	85.4%	88.3%	79.2%	91.8%
CNCC[C@H](Oc1cccc2ccccc12)c1cccs1	109%	116%	111%	113%	109%	96.2%	112%	108%	105%	95.8%	25.1%	126%	119%	124%	120%	121%	119%	112%	118%	119%	111%	81%	107%	115%	112%	119%	105%	116%	111%	105%	105%	98.6%	58%
O=C(O)CCNC(=O)c1ccc(/N=N/c2ccc(O)c(C(=O)O)c2)cc1	115%	116%	114%	114%	110%	120%	109%	115%	112%	110%	113%	–	–	–	–	–	–	–	–	–	–	–	–	–	–	–	–	–	–	–	–	–	–
